Laboratory results: ChEMBL document CHEMBL5335856, “Structurally Diverse Alkaloids with Anti-Renal-Fibrosis Activity from the Centipede Scolopendra subspinipes mutilans” (J Nat Prod, 2024)
Active and inactive are the calls of the source. The calls are words filed in the database; no cut-off is given here.

Columns and labels:
RAW264.7 = experiment: Antiinflammatory activity against LPS-induced mouse RAW264.7 cells assessed as reduction in iNOS protein level at 20 uM; assay type: functional, cell-based
NRK-52E [1] = experiment: Anti-renal-fibrosis activity in TGF-beta1 induced rat NRK-52E cells assessed as downregulation of fibronectin protein level at 20 uM by Western blot analysis; assay type: functional, cell-based
NRK-52E [2] = experiment: Anti-renal-fibrosis activity in TGF-beta1 induced rat NRK-52E cells assessed as downregulation of alpha-SMA protein level by Western blot analysis; assay type: functional, cell-based; details: dose 5-40 µM
NRK-52E [3] = experiment: Anti-renal-fibrosis activity in TGF-beta1 induced rat NRK-52E cells assessed as downregulation of fibronectin protein level by Western blot analysis; assay type: functional, cell-based; details: dose 5-40 µM
NRK-52E [4] = experiment: Cytotoxicity against rat NRK-52E cells at 10 to 80 uM incubated for 48 hrs by CCK-8 assay; assay type: toxicity, cell-based; details: dose 10-80 µM
NRK-52E [5] = experiment: Anti-renal-fibrosis activity in TGF-beta1 induced Lamp2 knocked down rat NRK-52E cells assessed as downregulation of fibronectin expression at 40 uM; assay type: functional, cell-based
NRK-52E [6] = experiment: Anti-renal-fibrosis activity in TGF-beta1 induced Lamp2 knocked down rat NRK-52E cells assessed as downregulation of collagen I expression at 40 uM; assay type: functional, cell-based
NRK-52E [7] = experiment: Anti-renal-fibrosis activity in TGF-beta1 induced Lamp2 knocked down rat NRK-52E cells assessed as downregulation of alpha-SMA expression at 40 uM; assay type: functional, cell-based
NRK-52E [8] = experiment: Anti-renal-fibrosis activity in TGF-beta1 induced rat NRK-52E cells assessed as downregulation of collagen I expression at 40 uM; assay type: functional, cell-based
[9] = biological target: 2-oxoisovalerate dehydrogenase subunit beta, mitochondrial (Homo sapiens) (UniProt P21953); experiment: Binding affinity to BCKDHB (unknown origin) at 200 uM preincubated for 2 hrs followed by pronase addition and measured after 30 mins by coomassie blue staining based SDS-PAGE gel analysis
[10] = biological target: Protein YIF1A (Homo sapiens) (UniProt O95070); experiment: Binding affinity to Yif1a (unknown origin) at 200 uM preincubated for 2 hrs followed by pronase addition and measured after 30 mins by coomassie blue staining based SDS-PAGE gel analysis
Chain of Protein YIF1A (Homo sapiens) (O95070 whole entry): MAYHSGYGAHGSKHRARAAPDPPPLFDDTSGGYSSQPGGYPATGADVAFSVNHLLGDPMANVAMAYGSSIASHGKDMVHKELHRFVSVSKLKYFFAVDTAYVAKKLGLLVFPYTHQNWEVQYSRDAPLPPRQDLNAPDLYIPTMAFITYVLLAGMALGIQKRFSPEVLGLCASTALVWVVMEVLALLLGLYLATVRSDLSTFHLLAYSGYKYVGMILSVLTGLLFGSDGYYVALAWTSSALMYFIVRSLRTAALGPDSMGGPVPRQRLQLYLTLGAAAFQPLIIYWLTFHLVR

[11] = biological target: Transcription initiation factor TFIID subunit 6 (Homo sapiens) (UniProt P49848); experiment: Binding affinity to Taf6 (unknown origin) at 200 uM preincubated for 2 hrs followed by pronase addition and measured after 30 mins by coomassie blue staining based SDS-PAGE gel analysis
Chain of Transcription initiation factor TFIID subunit 6 (Homo sapiens) (P49848 whole entry): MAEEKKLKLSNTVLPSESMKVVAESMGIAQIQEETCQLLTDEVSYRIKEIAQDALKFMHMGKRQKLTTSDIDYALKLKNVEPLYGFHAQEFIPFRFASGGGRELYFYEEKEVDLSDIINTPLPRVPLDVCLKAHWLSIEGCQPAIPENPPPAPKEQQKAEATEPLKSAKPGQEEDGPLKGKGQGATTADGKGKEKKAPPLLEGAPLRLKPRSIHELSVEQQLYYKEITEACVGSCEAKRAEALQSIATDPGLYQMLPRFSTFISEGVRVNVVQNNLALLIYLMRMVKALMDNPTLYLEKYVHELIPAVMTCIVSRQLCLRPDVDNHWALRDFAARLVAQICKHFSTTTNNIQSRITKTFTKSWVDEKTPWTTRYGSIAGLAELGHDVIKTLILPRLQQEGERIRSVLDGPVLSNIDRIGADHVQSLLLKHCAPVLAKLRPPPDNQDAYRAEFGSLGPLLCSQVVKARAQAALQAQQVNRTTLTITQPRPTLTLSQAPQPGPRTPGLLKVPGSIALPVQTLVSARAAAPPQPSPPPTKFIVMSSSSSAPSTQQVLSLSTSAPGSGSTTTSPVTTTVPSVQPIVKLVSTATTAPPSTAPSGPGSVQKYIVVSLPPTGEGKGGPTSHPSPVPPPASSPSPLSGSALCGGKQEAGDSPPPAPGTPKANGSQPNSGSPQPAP

[12] = biological target: Collagen alpha-1(I) chain (Homo sapiens) (UniProt P02452); experiment: Binding affinity to Col1a1 (unknown origin) at 200 uM preincubated for 2 hrs followed by pronase addition and measured after 30 mins by coomassie blue staining based SDS-PAGE gel analysis
[13] = biological target: Kinesin-like protein KIF21A (Homo sapiens) (UniProt Q7Z4S6); experiment: Binding affinity to Kif21a (unknown origin) at 200 uM preincubated for 2 hrs followed by pronase addition and measured after 30 mins by coomassie blue staining based SDS-PAGE gel analysis
Chain of Kinesin-like protein KIF21A (Homo sapiens) (Q7Z4S6 whole entry): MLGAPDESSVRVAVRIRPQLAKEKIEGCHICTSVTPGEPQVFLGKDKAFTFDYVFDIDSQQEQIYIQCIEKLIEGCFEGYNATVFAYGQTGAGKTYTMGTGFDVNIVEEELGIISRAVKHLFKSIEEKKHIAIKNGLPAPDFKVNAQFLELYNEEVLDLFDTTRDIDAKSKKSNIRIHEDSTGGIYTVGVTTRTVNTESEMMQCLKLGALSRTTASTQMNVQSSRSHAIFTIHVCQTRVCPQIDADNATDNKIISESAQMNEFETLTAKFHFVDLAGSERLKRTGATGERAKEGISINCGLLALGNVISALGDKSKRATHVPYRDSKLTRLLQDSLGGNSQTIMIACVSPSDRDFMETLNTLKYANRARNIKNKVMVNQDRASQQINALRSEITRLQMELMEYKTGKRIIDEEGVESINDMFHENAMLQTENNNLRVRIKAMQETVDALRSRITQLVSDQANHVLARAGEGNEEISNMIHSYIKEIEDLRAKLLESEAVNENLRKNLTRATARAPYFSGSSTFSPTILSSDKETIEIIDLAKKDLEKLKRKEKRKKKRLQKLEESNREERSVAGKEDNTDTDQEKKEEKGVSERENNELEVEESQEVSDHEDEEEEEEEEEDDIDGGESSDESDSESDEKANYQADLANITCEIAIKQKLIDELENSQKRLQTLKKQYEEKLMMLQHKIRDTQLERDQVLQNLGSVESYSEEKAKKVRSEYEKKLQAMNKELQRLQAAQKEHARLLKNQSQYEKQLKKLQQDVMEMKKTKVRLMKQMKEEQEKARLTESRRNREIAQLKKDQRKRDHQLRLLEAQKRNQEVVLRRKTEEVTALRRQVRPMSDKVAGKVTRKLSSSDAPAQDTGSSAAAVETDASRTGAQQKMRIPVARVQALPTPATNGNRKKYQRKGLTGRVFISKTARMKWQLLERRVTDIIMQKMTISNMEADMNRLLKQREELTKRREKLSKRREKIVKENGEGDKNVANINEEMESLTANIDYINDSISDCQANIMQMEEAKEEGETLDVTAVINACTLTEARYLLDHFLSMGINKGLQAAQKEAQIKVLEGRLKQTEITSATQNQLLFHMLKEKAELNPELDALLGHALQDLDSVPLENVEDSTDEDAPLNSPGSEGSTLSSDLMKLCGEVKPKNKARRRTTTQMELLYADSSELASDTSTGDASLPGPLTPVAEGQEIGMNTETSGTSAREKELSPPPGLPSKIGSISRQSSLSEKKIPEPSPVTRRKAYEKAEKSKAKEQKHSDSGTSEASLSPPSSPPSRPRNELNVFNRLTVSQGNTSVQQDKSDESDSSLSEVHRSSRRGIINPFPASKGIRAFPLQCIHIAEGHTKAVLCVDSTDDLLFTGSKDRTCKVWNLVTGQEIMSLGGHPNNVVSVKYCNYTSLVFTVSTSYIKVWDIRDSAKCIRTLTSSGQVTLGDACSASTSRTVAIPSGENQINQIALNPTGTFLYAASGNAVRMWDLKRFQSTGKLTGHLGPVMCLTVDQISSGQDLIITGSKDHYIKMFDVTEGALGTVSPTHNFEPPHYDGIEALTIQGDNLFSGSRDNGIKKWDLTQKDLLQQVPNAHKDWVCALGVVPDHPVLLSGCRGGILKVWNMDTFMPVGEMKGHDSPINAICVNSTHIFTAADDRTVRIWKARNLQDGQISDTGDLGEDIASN

[14] = biological target: CD2-associated protein (Homo sapiens) (UniProt Q9Y5K6); experiment: Binding affinity to Cd2ap (unknown origin) at 200 uM preincubated for 2 hrs followed by pronase addition and measured after 30 mins by coomassie blue staining based SDS-PAGE gel analysis
[15] = biological target: SWI/SNF-related matrix-associated actin-dependent regulator of chromatin subfamily D member 2 (Homo sapiens) (UniProt Q92925); experiment: Binding affinity to Smarcd2 (unknown origin) at 200 uM preincubated for 2 hrs followed by pronase addition and measured after 30 mins by coomassie blue staining based SDS-PAGE gel analysis
Homo sapiens = organism: Homo sapiens; experiment: Binding affinity to Wdr95 (unknown origin) at 200 uM preincubated for 2 hrs followed by pronase addition and measured after 30 mins by coomassie blue staining based SDS-PAGE gel analysis
[16] = biological target: Rho-related GTP-binding protein RhoB (Homo sapiens) (UniProt P62745); experiment: Binding affinity to RHOB (unknown origin) at 200 uM preincubated for 2 hrs followed by pronase addition and measured after 30 mins by coomassie blue staining based SDS-PAGE gel analysis
Chain of Rho-related GTP-binding protein RhoB (Homo sapiens) (P62745 whole entry): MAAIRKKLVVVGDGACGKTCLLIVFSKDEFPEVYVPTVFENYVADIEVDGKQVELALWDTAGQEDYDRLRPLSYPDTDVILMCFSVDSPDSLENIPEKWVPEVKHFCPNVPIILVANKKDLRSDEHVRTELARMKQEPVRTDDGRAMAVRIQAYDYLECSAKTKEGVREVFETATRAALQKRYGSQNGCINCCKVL

[17] = biological target: Ubiquitin-like modifier-activating enzyme 5 (Homo sapiens) (UniProt Q9GZZ9); experiment: Binding affinity to Uba5 (unknown origin) at 200 uM preincubated for 2 hrs followed by pronase addition and measured after 30 mins by coomassie blue staining based SDS-PAGE gel analysis
[18] = biological target: Lysosome-associated membrane glycoprotein 2 (Homo sapiens) (UniProt P13473); experiment: Binding affinity to Lamp2 (unknown origin) assessed as fold change in protein upregulation at 200 uM preincubated for 2 hrs followed by pronase addition and measured after 30 mins by coomassie blue staining based SDS-PAGE gel analysis
[19] = biological target: Far upstream element-binding protein 2 (Homo sapiens) (UniProt Q92945); experiment: Binding affinity to KHSRP (unknown origin) assessed as fold change in protein upregulation at 200 uM preincubated for 2 hrs followed by pronase addition and measured after 30 mins by coomassie blue staining based SDS-PAGE gel analysis
Chain of Far upstream element-binding protein 2 (Homo sapiens) (Q92945 whole entry): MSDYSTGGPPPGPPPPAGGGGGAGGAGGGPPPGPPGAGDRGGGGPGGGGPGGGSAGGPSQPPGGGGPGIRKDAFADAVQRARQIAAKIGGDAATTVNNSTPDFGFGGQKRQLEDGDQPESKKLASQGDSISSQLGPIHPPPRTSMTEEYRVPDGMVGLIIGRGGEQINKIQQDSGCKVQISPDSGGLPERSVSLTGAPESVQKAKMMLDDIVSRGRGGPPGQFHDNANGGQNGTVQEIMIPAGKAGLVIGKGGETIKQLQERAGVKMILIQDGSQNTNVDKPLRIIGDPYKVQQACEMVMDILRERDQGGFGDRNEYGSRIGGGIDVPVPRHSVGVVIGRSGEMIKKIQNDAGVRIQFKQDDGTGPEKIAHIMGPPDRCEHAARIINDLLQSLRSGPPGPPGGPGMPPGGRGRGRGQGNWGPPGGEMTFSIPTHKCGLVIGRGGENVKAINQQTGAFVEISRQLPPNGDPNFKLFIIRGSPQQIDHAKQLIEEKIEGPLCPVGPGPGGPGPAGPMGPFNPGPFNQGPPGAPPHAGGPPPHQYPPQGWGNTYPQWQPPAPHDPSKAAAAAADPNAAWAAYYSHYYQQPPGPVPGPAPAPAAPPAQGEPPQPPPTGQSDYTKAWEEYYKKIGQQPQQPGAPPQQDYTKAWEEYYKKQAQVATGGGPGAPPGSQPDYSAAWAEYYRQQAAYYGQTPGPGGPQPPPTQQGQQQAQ

[20] = biological target: Sorting nexin-3 (Homo sapiens) (UniProt O60493); experiment: Binding affinity to Snx3 (unknown origin) assessed as fold change in protein upregulation at 200 uM preincubated for 2 hrs followed by pronase addition and measured after 30 mins by coomassie blue staining based SDS-PAGE gel analysis
Chain of Sorting nexin-3 (Homo sapiens) (O60493 whole entry): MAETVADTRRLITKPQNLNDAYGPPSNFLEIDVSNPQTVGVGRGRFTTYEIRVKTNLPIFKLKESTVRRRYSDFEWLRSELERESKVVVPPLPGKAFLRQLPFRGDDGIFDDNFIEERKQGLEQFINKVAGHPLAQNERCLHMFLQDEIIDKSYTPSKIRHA

[21] = biological target: Tyrosine-protein phosphatase non-receptor type 2 (Homo sapiens) (UniProt P17706); experiment: Binding affinity to Ptpn2 (unknown origin) assessed as fold change in protein upregulation at 200 uM preincubated for 2 hrs followed by pronase addition and measured after 30 mins by coomassie blue staining based SDS-PAGE gel analysis
Chain of Tyrosine-protein phosphatase non-receptor type 2 (Homo sapiens) (P17706 whole entry): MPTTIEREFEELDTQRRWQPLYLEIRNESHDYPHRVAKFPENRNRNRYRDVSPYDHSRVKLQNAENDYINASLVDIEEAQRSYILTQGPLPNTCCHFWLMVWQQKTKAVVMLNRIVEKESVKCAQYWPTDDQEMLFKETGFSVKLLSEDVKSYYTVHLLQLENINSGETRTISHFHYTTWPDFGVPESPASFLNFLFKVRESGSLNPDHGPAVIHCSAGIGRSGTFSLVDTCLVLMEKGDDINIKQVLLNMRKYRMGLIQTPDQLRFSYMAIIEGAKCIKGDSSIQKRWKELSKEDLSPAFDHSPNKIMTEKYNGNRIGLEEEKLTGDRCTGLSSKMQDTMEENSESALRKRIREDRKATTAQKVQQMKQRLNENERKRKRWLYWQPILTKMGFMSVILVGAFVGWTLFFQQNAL

[22] = biological target: Prelamin-A/C (Homo sapiens) (UniProt P02545); experiment: Binding affinity to LMNA (unknown origin) assessed as fold change in protein upregulation at 200 uM preincubated for 2 hrs followed by pronase addition and measured after 30 mins by coomassie blue staining based SDS-PAGE gel analysis
Testin (Homo sapiens) = Testin (Homo sapiens) (UniProt Q9UGI8); experiment: Binding affinity to Tes (unknown origin) assessed as fold change in protein upregulation at 200 uM preincubated for 2 hrs followed by pronase addition and measured after 30 mins by coomassie blue staining based SDS-PAGE gel analysis
[23] = biological target: Cysteine and glycine-rich protein 2 (Homo sapiens) (UniProt Q16527); experiment: Binding affinity to Csrp2 (unknown origin) assessed as fold change in protein upregulation at 200 uM preincubated for 2 hrs followed by pronase addition and measured after 30 mins by coomassie blue staining based SDS-PAGE gel analysis
[24] = biological target: FACT complex subunit SPT16 (Homo sapiens) (UniProt Q9Y5B9); experiment: Binding affinity to Supt16h (unknown origin) assessed as fold change in protein upregulation at 200 uM preincubated for 2 hrs followed by pronase addition and measured after 30 mins by coomassie blue staining based SDS-PAGE gel analysis
[25] = biological target: Protein O-mannosyl-transferase TMTC3 (Homo sapiens) (UniProt Q6ZXV5); experiment: Binding affinity to Tmtc3 (unknown origin) assessed as fold change in protein upregulation at 200 uM preincubated for 2 hrs followed by pronase addition and measured after 30 mins by coomassie blue staining based SDS-PAGE gel analysis
Chain of Protein O-mannosyl-transferase TMTC3 (Homo sapiens) (Q6ZXV5 whole entry): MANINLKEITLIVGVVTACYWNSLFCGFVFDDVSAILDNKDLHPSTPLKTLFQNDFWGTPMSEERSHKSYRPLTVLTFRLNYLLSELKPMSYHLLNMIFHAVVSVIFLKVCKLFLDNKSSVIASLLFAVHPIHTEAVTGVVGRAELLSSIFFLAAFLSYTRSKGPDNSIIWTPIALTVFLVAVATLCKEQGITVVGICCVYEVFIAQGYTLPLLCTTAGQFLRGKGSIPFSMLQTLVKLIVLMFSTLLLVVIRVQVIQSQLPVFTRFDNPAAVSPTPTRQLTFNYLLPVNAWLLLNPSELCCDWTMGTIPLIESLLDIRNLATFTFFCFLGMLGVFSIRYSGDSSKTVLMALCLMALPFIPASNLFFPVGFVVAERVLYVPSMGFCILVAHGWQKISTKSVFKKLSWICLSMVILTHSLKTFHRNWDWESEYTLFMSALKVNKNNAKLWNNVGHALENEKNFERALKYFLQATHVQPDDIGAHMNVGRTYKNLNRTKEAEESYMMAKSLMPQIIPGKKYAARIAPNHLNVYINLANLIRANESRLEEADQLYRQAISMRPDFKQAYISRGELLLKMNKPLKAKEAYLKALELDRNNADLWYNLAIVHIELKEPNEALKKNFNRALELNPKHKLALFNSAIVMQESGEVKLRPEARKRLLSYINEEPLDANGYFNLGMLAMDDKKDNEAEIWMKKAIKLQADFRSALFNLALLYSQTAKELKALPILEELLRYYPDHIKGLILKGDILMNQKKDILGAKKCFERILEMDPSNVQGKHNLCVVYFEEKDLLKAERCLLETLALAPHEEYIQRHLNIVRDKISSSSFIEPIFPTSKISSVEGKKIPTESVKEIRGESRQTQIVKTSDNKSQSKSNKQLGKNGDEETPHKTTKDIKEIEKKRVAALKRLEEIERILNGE

- Activity [9]: Active
- Activity [10]: Active
- Activity [11]: Active
- Activity [12]: Active
- Activity [13]: Active
- Activity [14]: Active
- Activity [15]: Active
- Activity (Homo sapiens): Active
- Activity [16]: Active
- Activity [17]: Active
- fold change (FC) [18]: 2.42
- fold change (FC) [19]: 2.19
- fold change (FC) [20]: 1.67
- fold change (FC) [21]: 1.57
- fold change (FC) [22]: 1.34
- fold change (FC) (Testin (Homo sapiens)): 1.32
- fold change (FC) [23]: 1.29
- fold change (FC) [24]: 1.23
- fold change (FC) [25]: 1.22
SMILES: COc1c(O)nc2c(O)cccc2c1OC
- Activity (RAW264.7): Active
- Activity (NRK-52E [1]): Active
- Activity (NRK-52E [2]): Dose-Dependent Effect
- Activity (NRK-52E [3]): Dose-Dependent Effect
- Activity (NRK-52E [4]): Non-Toxic
- Activity (NRK-52E [5]): inactive
- Activity (NRK-52E [6]): inactive
- Activity (NRK-52E [7]): inactive
- Activity (NRK-52E [8]): Active
